In publication PMC12362764, “Novel Cyano‐Artemisinin Dimer ZQJ29 Targets PARP1 to Induce Ferroptosis in Pancreatic Cancer Treatment” (Advanced Science, 2025):

Assays:
Type in all cases: cell-based
[1] = tested on: PANC-1 and KP4 cells; assay: Colony formation assay; conditions: 0, 1, 2.5, 5 µM, concentration-dependent
Experimental: The clonogenicity of pancreatic cancer cells was evaluated using a colony formation assay. PANC‐1 and KP4 cells were seeded into 6‐well plates at ≈200 cells per well in the conditional medium. The cells were treated with different concentrations of ZQJ29 (0, 1, 2.5, and 5 µM) for 24 h. After treatment, the drug‐containing medium was removed, and complete medium was added for an additional […] in a 37 °C incubator with 5% CO2. The plates were then washed with PBS and fixed with 4% paraformaldehyde. After staining with 0.5% crystal violet (Yeasen, Shanghai, China), the colonies were counted manually.

[2] = tested on: KP4 cells; assay: Cell cycle analysis (PI, flow cytometry), KP4; conditions: KP4, 24 h
Experimental: (§1) PANC‐1 and KP4 cells were placed in 6 cm dishes and exposed to designated concentrations of ZQJ29 (1 µM) for 24 h before trypsinization. After centrifugation, the cells were secured and preserved in ice‐cold 70% ethanol and stored at 4 °C for 24 h. They were then thoroughly washed with PBS multiple times. Next, the fixed cells were incubated in PBS supplemented with RNase and PI solution for 30 min at 37 °C, protected from light exposure. Cell cycle progression was assessed using a flow cytometer. This experimental procedure was systematically conducted in three separate trials, with each trial done in triplicate. Cell cycle kits were obtained from Beyotime (Shanghai, China).

[3] = tested on: PANC-1 cells; assay: Cell cycle analysis (PI, flow cytometry), PANC-1; conditions: PANC-1, 24 h
Experimental: as §1

[4] = tested on: H1975; assay: CCK-8 cytotoxicity assay, H1975; conditions: Homo sapiens, NCI-H1975, 72 h
Experimental: Cell viability was evaluated using the Cell Counting Kit‐8 (Beyotime, Shanghai, China) assay. Cells were seeded in 96‐well plates at a density of 2×10^3 cells to allow for attachment. After treatment with ZQJ29 (0.001, 0.01, 0.1, 10, and 25 µM) for 24, 48, and 72 h, 10 µL of CCK‐8 solution was added to each well and incubated for 1 h. The optical density values were then measured at 450 nm using a multifunctional enzyme‐linked immunosorbent assay reader (Tecan, Spark, Switzerland).

[5] = tested on: PANC-1; assay: Label-free proteomics; conditions: PANC-1, 5 µM ZQJ29 vs DMSO, 24 h
Experimental: PANC‐1 cells were inoculated into 6‐well plates at ≈2 × 10^5 cells per well and grown for 24 h. After this period, the cells were treated with 5 µM ZQJ29 and an equal volume of solvent (DMSO) for an additional 24 h. Following treatment, the cells were removed from the incubator, and the medium was aspirated and discarded. The cells were washed twice with pre‐cooled PBS, which was then discarded. Next, 30 µL of RIPA lysis buffer containing PMSF (Yeasen, Shanghai, China) was added, and the cells were scraped off quickly using a cell scraper. The cell suspension was collected in 1.5 mL EP tubes and placed on ice. Cells were homogenized using ultrasound (3s × 15 times at 4s intervals), and the mixture was kept on ice for 10–15 min until the foam subsided. The centrifuge was pre‐cooled to 4 °C and centrifuged at 12 000 rpm for 15 min. The supernatant was collected to obtain the protein.
For each group of 3 samples, the protein concentration was determined by the BCA Protein Assay Kit (Beyotime, Shanghai, China). A total of 100 µg of protein was aspirated from each group. Five times the volume of acetone/ethanol/formic acid (50:50:0.1, v/v) was added, and the mixture was thoroughly mixed before allowing the protein to precipitate overnight at −20 °C. […] Finally, the sample was analyzed using instrumental LC‐MS (Agilent, USA).

For `CC1CCC2C(C)C(OCCN(C#N)CCOC3OC4OC5(C)CCC6C(C)CCC(C3C)C46OO5)OC3OC4(C)CCC1C32OO4` (centres unmarked) [ZQJ29], the colony formation [1] was “significantly inhibited”, the cell cycle arrest [2] was “remarkable G2/M phase arrest” and the cell cycle arrest [3] was “remarkable G2/M phase arrest”. For the same molecule, the IC50 [4] was 2.19 ± 0.113 µM and the “PARP1 protein level (proteomics)” value [5] was “prominently down‐regulated”.
